Values of other authors as cited in patent US6809181B2, “Human beta-defensin-3 (HBD-3), a highly cationic beta-defensin antimicrobial peptide” (University of Iowa Research Foundation, priority 2000, dated 2004).
Read-outs that look alike come from different tables or passages of the source.

How the values were obtained:
Bacteroides fragilis = details: n=97, r7, cited from earlier work
[1] = system: Bordetella bronchiseptica; details: n=11, r8, cited from earlier work
Bordetella parapertussis = details: n=46; r9; unit assumed; cited from earlier work
Borrelia burgdorferi = details: n=10; r12; unit assumed; cited from earlier work
[2] = system: Branhamella (Moraxella) catarrhalis; details: n=20, unit assumed, cited from earlier work
[3] = system: Branhamella (Moraxella) catarrhalis (β-lactamase producer); details: cited from earlier work
Campylobacter jejuni = details: cited from earlier work; for MIC50 / MIC90: unit assumed
Enterococcus faecium = details: n=14, r51, cited from earlier work
[4] = system: Haemophilus influenzae (β-lactamase producer); details: cited from earlier work
[5] = system: Haemophilus influenzae (penicillin susceptible); details: n=22, r64, cited from earlier work
Listeria monocytogenes = details: cited from earlier work; for MIC50 / MIC90: unit assumed
Mycoplasma pneumoniae = details: cited from earlier work
[6] = system: Neisseria gonorrhoeae (β-lactamase producer); details: cited from earlier work
Nocardia asteroides = details: n=78, r91, cited from earlier work
Staphylococcus aureus = details: unit assumed, cited from earlier work
[7] = system: Staphylococcus aureus (penicillin susceptible); details: cited from earlier work; for MIC50 / MIC90: unit assumed
[8] = system: Staphylococcus aureus (penicillin resistant); details: n=35, r98, cited from earlier work
[9] = system: Staphylococcus aureus (methicillin susceptible); details: unit assumed, cited from earlier work
[10] = system: Staphylococcus aureus (methicillin resistant); details: cited from earlier work
[11] = system: Staphylococcus coagulase f; details: unit assumed; cited from earlier work
[12] = system: Staphylococcus haemolyticus; details: n=20; r121; unit assumed; cited from earlier work
Staphylococcus hominis = details: n=20; r122; unit assumed; cited from earlier work
Streptococcus agalactiae = details: cited from earlier work
Streptococcus pneumoniae = details: cited from earlier work; for MIC90: unit assumed
Streptococcus pyogenes = details: cited from earlier work
Streptococcus spp. = details: cited from earlier work; for MIC50 / MIC90: unit assumed
Ureaplasma urealyticum = details: unit assumed, cited from earlier work

CC[C@H]1OC(=O)[C@H](C)[C@@H](O[C@H]2C[C@@](C)(OC)[C@@H](O)[C@H](C)O2)[C@H](C)[C@@H](O[C@@H]2O[C@H](C)C[C@H](N(C)C)[C@H]2O)[C@](C)(O)C[C@@H](C)C(=O)[C@H](C)[C@@H](O)[C@]1(C)O [ERYTHROMYCIN, erythromycin]
0.015-0.25: Range (Streptococcus pneumoniae; n=26, r129) | Range (Streptococcus spp.; n=22, r135)
64: Range ([10]; n=15, r108) | Range ([10]; n=20, r110)
8 µg/mL: MIC90 (Bacteroides fragilis; unit assumed) | MIC50 ([1]; unit assumed) | MIC50 ([5]; unit assumed) | MIC50 (Nocardia asteroides; unit assumed) | MIC90 (Nocardia asteroides; unit assumed)
1 µg/mL: MIC50 (Bacteroides fragilis; unit assumed) | MIC90 ([2]; r15) | MIC50 (Campylobacter jejuni; n=25, r41) | MIC50 (Enterococcus faecium; unit assumed) | MIC90 (Listeria monocytogenes; n=16, r75) | MIC90 (Streptococcus spp.; n=107, r136)
0.5-8: Range (Campylobacter jejuni; n=25, r41)
0.06-64: Range (Enterococcus faecium)
0.004 µg/mL: MIC50 (Mycoplasma pneumoniae; n=14, r80, unit assumed) | MIC90 (Mycoplasma pneumoniae; n=14, r80, unit assumed)
0.03-0.25: Range ([3]; n=58, r32) | Range (Streptococcus agalactiae; n=20, r123) | Range (Streptococcus pneumoniae; n=58, r125) | Range (Streptococcus pyogenes; n=19, r131) | Range (Streptococcus pyogenes; n=20, r132)
0.25-4: Range ([4]; n=17, r62)
32 µg/mL: MIC90 ([1]; unit assumed) | MIC90 (Listeria monocytogenes; n=65, r76) | MIC90 ([8]; unit assumed) | MIC50 ([10]; n=30, r112, unit assumed) | MIC90 ([10]; n=30, r112, unit assumed) | MIC90 (Streptococcus pyogenes; n=20, r134, unit assumed) | MIC90 (Ureaplasma urealyticum; n=19, r138)
64 µg/mL: MIC50 ([10]; n=15, r108, unit assumed) | MIC50 ([10]; n=20, r110, unit assumed) | MIC50 [12] | MIC50 (Staphylococcus hominis)
0.25 µg/mL: MIC50 (Bordetella parapertussis) | MIC50 ([2]; r13) | MIC50 ([2]; r15) | MIC50 (Campylobacter jejuni; n=16, r42) | MIC50 (Listeria monocytogenes; n=16, r75) | MIC50 ([7]; n=35, r96) | MIC50 ([8]; unit assumed) | MIC50 ([9]; n=28, r100) | MIC50 ([9]; n=97, r102) | MIC50 [11]
0.03 µg/mL: MIC50 (Borrelia burgdorferi) | MIC50 (Streptococcus agalactiae; n=20, r123, unit assumed) | MIC50 (Streptococcus agalactiae; n=34, r124, unit assumed) | MIC90 (Streptococcus agalactiae; n=34, r124, unit assumed) | MIC90 (Streptococcus pneumoniae; n=50, r127) | MIC50 (Streptococcus pyogenes; n=33, r133, unit assumed) | MIC90 (Streptococcus pyogenes; n=33, r133, unit assumed) | MIC50 (Streptococcus spp.; n=22, r135) | MIC50 (Streptococcus spp.; n=107, r136)
16 µg/mL: MIC90 ([5]; unit assumed) | MIC50 (Ureaplasma urealyticum; n=19, r138)
0.004-0.03: Range (Mycoplasma pneumoniae; n=14, r80)
0.25-8: Range (Nocardia asteroides)
0.25-32: Range [8]
2 µg/mL: MIC90 (Campylobacter jejuni; n=16, r42) | MIC50 (Ureaplasma urealyticum; n=28, r137)
1-4: Range ([6]; n=17, r88)
0.03-4: Range ([6]; n=12, r86)
4 µg/mL: MIC90 (Campylobacter jejuni; n=25, r41) | MIC90 (Staphylococcus aureus; n=100, r93)
0.5-1: Range (Listeria monocytogenes; n=13, r74)
4-32: Range [1]
0.004-2: Range (Streptococcus spp.; n=107, r136)
0.5 µg/mL: MIC50 (Listeria monocytogenes; n=13, r74) | MIC90 (Listeria monocytogenes; n=13, r74) | MIC90 (Staphylococcus aureus; n=44, r92) | MIC50 (Staphylococcus aureus; n=100, r93) | MIC50 ([7]; n=20, r94) | MIC90 ([7]; n=20, r94) | MIC90 ([7]; n=35, r96) | MIC50 ([9]; n=20, r104) | MIC90 ([9]; n=20, r104) | MIC90 ([9]; n=28, r100)
0.015-0.06: Range (Streptococcus agalactiae; n=34, r124) | Range (Streptococcus pneumoniae; n=50, r127)
0.015-0.03: Range (Streptococcus pyogenes; n=33, r133)
0.06-1: Range ([3]; n=47, r29)
0.06 µg/mL: MIC90 (Borrelia burgdorferi) | MIC90 (Mycoplasma pneumoniae; n=10, r79, unit assumed) | MIC90 (Streptococcus pneumoniae; n=26, r129) | MIC90 (Streptococcus pneumoniae; n=50, r130) | MIC90 (Streptococcus spp.; n=22, r135)
0.06-32: Range (Listeria monocytogenes; n=65, r76) | Range ([7]; n=35, r96) | Range ([10]; n=30, r112) | Range (Streptococcus pyogenes; n=20, r134)
0.25-16: Range (Bacteroides fragilis) | Range [5]
0.06-8: Range ([3]; n=160, r35) | Range ([4]; n=46, r60) | Range (Mycoplasma pneumoniae; n=10, r79)
